# In ChEMBL document CHEMBL5505992, “Novel membrane-targeting isoxanthohumol-amine conjugates for combating methicillin-resistant Staphylococcus aureus (MRSA) infections” (Eur J Med Chem, 2024):
# Assays:
# Staphylococcus aureus [1] = experiment: Antibacterial activity against Staphylococcus aureus ATCC 29213 measured after 16 to 18 hrs by CLSI method; assay type: functional; conditions: time 16-18 hrs
# Staphylococcus aureus [2] = experiment: Antibacterial activity against methicillin-resistant Staphylococcus aureus clinical isolate MRSA-21 measured after 16 to 18 hrs by CLSI method; assay type: functional; conditions: time 16-18 hrs
# Staphylococcus aureus [3] = experiment: Antibacterial activity against methicillin-resistant Staphylococcus aureus clinical isolate MRSA-23 measured after 16 to 18 hrs by CLSI method; assay type: functional; conditions: time 16-18 hrs
# Staphylococcus aureus [4] = experiment: Antibacterial activity against methicillin-resistant Staphylococcus aureus clinical isolate MRSA-13 measured after 16 to 18 hrs by CLSI method; assay type: functional; conditions: time 16-18 hrs
# Staphylococcus aureus [5] = experiment: Antibacterial activity against methicillin-resistant Staphylococcus aureus clinical isolate MRSA-22 measured after 16 to 18 hrs by CLSI method; assay type: functional; conditions: time 16-18 hrs
# Staphylococcus aureus [6] = experiment: Antibacterial activity against methicillin-resistant Staphylococcus aureus clinical isolate MRSA-20 measured after 16 to 18 hrs by CLSI method; assay type: functional; conditions: time 16-18 hrs
# Staphylococcus aureus [7] = experiment: Antibacterial activity against methicillin-resistant Staphylococcus aureus clinical isolate MRSA-14 measured after 16 to 18 hrs by CLSI method; assay type: functional; conditions: time 16-18 hrs
# [8] = Hemolytic activity in sheep erythrocytes incubated for 1 hr by absorbance based analysis; assay type: toxicity, cell-based, Ovis aries, Erythrocyte
# Staphylococcus aureus [9] = experiment: Antibacterial activity against methicillin-resistant Staphylococcus aureus clinical isolate MRSA-16 measured after 16 to 18 hrs by CLSI method; assay type: functional; conditions: time 16-18 hrs
# [10] = Selectivity index, ratio of HC50 for hemolytic activity in sheep erythrocytes to MIC for antibacterial activity against Staphylococcus aureus ATCC 29213; assay type: toxicity, cell-based; conditions: read-out: Selectivity Index
# Staphylococcus aureus [11] = experiment: Antibacterial activity against methicillin-resistant Staphylococcus aureus clinical isolate MRSA-18 measured after 16 to 18 hrs by CLSI method; assay type: functional; conditions: time 16-18 hrs
# Escherichia coli = experiment: Antibacterial activity against Escherichia coli ATCC25922 measured after 16 to 18 hrs by CLSI method; assay type: functional; conditions: time 16-18 hrs
# Staphylococcus aureus [12] = experiment: Antibacterial activity against methicillin-resistant Staphylococcus aureus clinical isolate MRSA-11 measured after 16 to 18 hrs by CLSI method; assay type: functional; conditions: time 16-18 hrs
# Staphylococcus aureus [13] = experiment: Antibacterial activity against methicillin-resistant Staphylococcus aureus clinical isolate MRSA-17 measured after 16 to 18 hrs by CLSI method; assay type: functional; conditions: time 16-18 hrs
SMILES,MIC (Staphylococcus aureus [1]) [µg/mL],MIC (Staphylococcus aureus [2]) [µg/mL],MIC (Staphylococcus aureus [3]) [µg/mL],MIC (Staphylococcus aureus [4]) [µg/mL],MIC (Staphylococcus aureus [5]) [µg/mL],MIC (Staphylococcus aureus [6]) [µg/mL],MIC (Staphylococcus aureus [7]) [µg/mL],HC50 at 1 h [8] [µg/mL],MIC (Staphylococcus aureus [9]) [µg/mL],selectivity ratio [10],MIC (Staphylococcus aureus [11]) [µg/mL],MIC (Escherichia coli) [µg/mL],MIC (Staphylococcus aureus [12]) [µg/mL],MIC (Staphylococcus aureus [13]) [µg/mL]
COc1cc(OCCCCCN2CCC(C)CC2)c(CC=C(C)C)c2c1C(=O)CC(c1ccc(OCCCCCN3CCC(C)CC3)cc1)O2 (configuration not stated),8,4,8,8,8,8,8,> 1280,4,> 160,8,> 128,4,8
COc1cc(OCCCCN2CCOCC2)c(CC=C(C)C)c2c1C(=O)CC(c1ccc(OCCCCN3CCOCC3)cc1)O2 (configuration not stated),32,64,32,64,32,32,64,> 640,> 128,> 20,32,> 128,64,32
COc1cc(OCCCCN2CCCC(C)C2)c(CC=C(C)C)c2c1C(=O)CC(c1ccc(OCCCCN3CCCC(C)C3)cc1)O2 (configuration not stated),16,16,16,8,8,8,8,120,8,> 7.5,16,> 128,8,8
COc1cc(OCCCN2CCN(C)CC2)c(CC=C(C)C)c2c1C(=O)CC(c1ccc(OCCCN3CCN(C)CC3)cc1)O2 (configuration not stated),64,32,64,64,32,64,64,> 1280,64,> 20,64,> 128,32,32
CCCN(CCC)CCCOc1ccc(C2CC(=O)c3c(OC)cc(OCCCN(CCC)CCC)c(CC=C(C)C)c3O2)cc1 (configuration not stated),16,16,16,8,16,16,16,> 1280,8,> 80,16,> 128,16,8
COc1cc(OCCCCN2CCCCC2)c(CC=C(C)C)c2c1C(=O)CC(c1ccc(OCCCCN3CCCCC3)cc1)O2 (configuration not stated),32,32,16,16,16,16,32,199,16,> 6.2,32,> 128,16,16
COc1cc(OCCCN2CCCCC2C)c(CC=C(C)C)c2c1C(=O)CC(c1ccc(OCCCN3CCCCC3C)cc1)O2 (configuration not stated),32,32,32,32,16,32,32,> 1280,16,> 40,32,> 128,32,32
COc1cc(OCCCCN2CCN(C)CC2)c(CC=C(C)C)c2c1C(=O)CC(c1ccc(OCCCCN3CCN(C)CC3)cc1)O2 (configuration not stated),32,32,32,32,32,32,32,> 1280,32,> 40,32,> 128,32,16
